In ChEMBL document CHEMBL5131397, “Discovery and Optimization of Pyrazole Amides as Inhibitors of ELOVL1” (J Med Chem, 2021):
Activity calls are given as the source filed them. The rule behind the calls is not given here.

Assays:
[1] = target: T1, Very long chain fatty acid elongase 7 (Homo sapiens, UniProt A1L3X0); assay: Inhibition of ELOVL7 (unknown origin) using C18-acyl-CoA as substrate by radiometric enzyme assay
T1 sequence (A1L3X0 whole entry): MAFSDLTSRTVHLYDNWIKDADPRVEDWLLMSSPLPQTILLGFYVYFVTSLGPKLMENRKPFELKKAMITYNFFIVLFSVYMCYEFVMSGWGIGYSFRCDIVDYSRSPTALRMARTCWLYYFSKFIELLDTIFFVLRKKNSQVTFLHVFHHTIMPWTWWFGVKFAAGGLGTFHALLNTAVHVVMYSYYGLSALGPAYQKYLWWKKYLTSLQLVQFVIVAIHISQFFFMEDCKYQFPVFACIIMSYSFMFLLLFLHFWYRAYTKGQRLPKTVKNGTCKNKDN

[2] = target: T2, Very long chain fatty acid elongase 1 (Homo sapiens, UniProt Q9BW60); assay: Inhibition of ELOVL1 in AMN 2 patient-derived fibroblast assessed as reduction of C26:0 VLCFA synthesis incubated for 48 hrs by cellular assay; format: cell-based
T2 sequence (Q9BW60 whole entry): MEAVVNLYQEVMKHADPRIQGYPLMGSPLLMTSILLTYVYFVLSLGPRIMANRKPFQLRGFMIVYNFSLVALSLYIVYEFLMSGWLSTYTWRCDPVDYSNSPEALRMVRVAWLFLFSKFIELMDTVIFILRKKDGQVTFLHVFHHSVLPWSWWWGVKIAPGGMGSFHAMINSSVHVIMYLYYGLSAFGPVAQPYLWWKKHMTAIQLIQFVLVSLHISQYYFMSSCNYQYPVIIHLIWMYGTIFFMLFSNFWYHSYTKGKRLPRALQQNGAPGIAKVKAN

[3] = Apparent permeability across apical to basolateral side in wild-type dog MDCK cells by LC-MS analysis; format: ADME, cell-based, Canis lupus familiaris
[4] = Cmax in Sprague-Dawley rat at 3 mg/kg, po upto 24 hrs by LC/MS/MS analysis; format: ADME, organism-based; set-up: dose 3 mg/kg, time < 24 hrs, route po; conditions: in vivo
[5] = Reduction in C26:0/C16:0 LPC level in ABCD1 knock out mouse CNS at 5 mg/kg, po qd measured after 8 months of dosing by LC-MS/MS analysis; format: functional; set-up: scale not given: the % may be the effect or the level left; conditions: 5840 h
[6] = Toxicity in Sprague-Dawley rat assessed as ulceration at 5 to 50 mg/kg/day, po administered for 2 to 8 weeks; format: organism-based; conditions: in vivo, dose lower 5 mg/kg/day, time lower 2 weeks, dose upper 50 mg/kg/day, time upper 8 weeks
Mus musculus [7] = assay: Reduction of C26:0 LPC level in ABCD1 KO mouse blood at 5 to 20 mg/kg, po qd for 8 months continuous dosing by LC-MS/MS analysis; format: functional, organism-based; conditions: dose 5-20 mg/kg
[8] = Toxicity in Sprague-Dawley rat assessed as ocular focal cellular disorganization at 5 mg/kg/day, po administered for 8 weeks by microscopic observation analysis; format: organism-based; conditions: in vivo, 1344 h
Mus musculus [9] = assay: Reversal of loss of thermal pain sensitivity in ABCD1 knock out mouse assessed as increase in latency at 8 to 32 mg/kg, po qd treated for 6 months by Hargreaves test; format: functional, organism-based; conditions: dose 8-32 mg/kg
[10] = Reduction of C26:0 /C16:0 LPC level in ABCD1 KO mouse blood at 20 mg/kg, po qd for 8 months by LC-MS/MS analysis relative to control; format: functional; set-up: scale not given: the % may be the effect or the level left; conditions: 5840 h
[11] = AUC (infinity) in Beagle dog at 3 mg/kg, po upto 24 hrs by LC/MS/MS analysis; format: ADME, organism-based, Canis lupus familiaris; set-up: time < 24 hrs, dose 3 mg/kg, route po; conditions: in vivo
[12] = Reduction in C26:0 LPC level in Cynomolgus monkey plasma at 15 mg/kg, po qd for 13 weeks by LC-MS/MS analysis; format: functional, Macaca fascicularis; set-up: scale not given: the % may be the effect or the level left
[13] = Half life in Cynomolgus monkey at 1 mg/kg, iv upto 48 hrs by LC/MS/MS analysis; format: ADME, organism-based, Macaca fascicularis; conditions: in vivo
[14] = Clearance in Cynomolgus monkey at 1 mg/kg, iv upto 48 hrs by LC/MS/MS analysis; format: ADME, organism-based, Macaca fascicularis; conditions: in vivo
[15] = Toxicity in Sprague-Dawley rat assessed as ocular epithelial atrophy at 5 mg/kg/day, po administered for 8 weeks by microscopic observation analysis; format: organism-based; conditions: in vivo, 1344 h
[16] = Unbound brain-to-plasma concentration ratio in rat at 3 mg/kg, po measured after 120 mins; format: ADME, organism-based; conditions: brain and plasma, read-out: K(p,uu,brain)
[17] = Reduction in C26:0 LPC level in wild-type C57BL/6 mouse blood at 2 to 32 mg/kg, po qd for 105 days by LC-MS/MS analysis relative to control; format: functional; set-up: scale not given: the % may be the effect or the level left; conditions: dose 2-32 mg/kg, time 105 day
[18] = Toxicity in Sprague-Dawley rat assessed as reversal of lesions at 5 to 50 mg/kg/day, po administered for 8 weeks and measured after cessation dosing; format: organism-based; conditions: in vivo, 1344 h, dose 5-50 mg/kg/day
[19] = Toxicity in Cynomolgus monkey assessed as dry and red scaly areas on eyelids at 5 to 50 mg/kg/day, po administered for 14 days by macroscopic observation analysis; format: organism-based, Macaca fascicularis; conditions: in vivo, 336 h, dose 5-50 mg/kg/day, time 14 day
[20] = Toxicity in juvenile Sprague-Dawley rat assessed as corneal lesions at 5 to 75 mg/kg/day, po treatment started from postnatal day 18 to 114 days; format: organism-based; conditions: in vivo, dose lower 5 mg/kg/day, time lower 18 day, dose upper 75 mg/kg/day, time upper 114 day
[21] = Reduction in C26:0/C16:0 LPC level in ABCD1 knock out mouse CNS at 10 mg/kg, po qd measured after 3 months of dosing by LC-MS/MS analysis; format: functional; set-up: scale not given: the % may be the effect or the level left; conditions: 2190 h
[22] = Increase in C20:0/C16:0 LPC level in ABCD1 knock out mouse CNS at 10 mg/kg, po qd measured after 3 months of dosing by LC-MS/MS analysis; format: functional; conditions: 2190 h
[23] = Plasma protein binding in dog at 5 uM; format: ADME, cell-free, Canis lupus familiaris; conditions: read-out: PPB (converted)

O=C(Nc1ccn(-c2ccnc(F)c2)n1)C1(c2ccccc2F)CC1
IC50 [1]: > 500000 nM
IC50 [2]: 17 nM
Papp A→B [3]: 10.1 ×10⁻⁶ cm/s
Cmax [4]: 174 ng/mL
Activity [5]: 65%
Activity [6]: Toxic
Activity (Mus musculus [7]): Active
Activity [8]: Toxic
Activity (Mus musculus [9]): Active
Activity [10]: 68%
AUC(0-inf) [11]: 1250 ng·h/mL
Activity [12]: 82%
half-life [13]: 5.4 h
clearance [14]: 7 mL/min/kg
Activity [15]: Toxic
Kp uu at 2 h [16]: 1.1
Activity [17]: 67%
Activity [18]: Non-Toxic
Activity [19]: Toxic
Activity [20]: Toxic
Activity [21]: 34%
Activity [22]: 38%
fraction unbound at 5 µM [23]: 0.061
